Data published in patent publication US9890147B2 (BAYER PHARMA AKTIENGESELLSCHAFT, priority 2012, dated 2018).

Legend:
MOLM-13 cells = experiment: Cell proliferation assay (alamarBlue), MOLM-13; format: cell-based; conditions: Homo sapiens, 96 hours incubation, inhibition of cell proliferation
How it was run: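 Cells in RPMI1640/10% FCS read by alamarBlue fluorescence (ex 530, em 590 nm) after overnight 37 °C incubation, then treated at 1E-5 to 1E-8 M for 96 h. Pre-treatment values subtracted from endpoint values and compared with buffer-only wells; IC50 is 50% proliferation inhibition.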

BRD4 (BD1) = target: T1, BRD4 (BD1) (Homo sapiens, UniProt O60885); experiment: Binding assay BRD4/acetylated peptide H4 (TR-FRET protein-protein interaction assay)
T1 construct: with relatively long constructs also being possible, preferably amino acids 44-168; made in house; host or cells: E. coli
How it was run: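 His6-BRD4 BD1 (aa 67-152, E. coli), usually 10 nM, with biotinylated tetra-acetylated H4 peptide in HEPES pH 7.5 buffer; 11 compound concentrations 0.1 nM–20 μM in duplicate, 10 min preincubation, 1 h at 22 °C then ≥3 h at 4 °C. TR-FRET 665/620 ratio; IC50 by 4-parameter fit.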

| SMILES | IC50 (MOLM-13 cells) | IC50 (BRD4 (BD1)) |
| --- | --- | --- |
| CNC(=O)N1N=C(c2ccc(-c3cccn3C)cc2)c2cc(OC)c(OC)cc2CC1C (racemic) [Example 116, (±)-7,8-dimethoxy-N,4-dimethyl-1-[4-(1-methyl-1H-pyrrol-2-yl)phenyl]-4,5-dihydro-3H-2,3-benzodiazepine-3-carboxamide] | 490 nM | 70 nM |
| CNC(=O)N1N=C(c2ccc(-n3ccc(-c4ccc(F)cc4)n3)cc2)c2cc(OC)c(OC)cc2CC1C (racemic) [Example 150, (±)-1-{4-[3-(4-fluorophenyl)-1H-pyrazol-1-yl]phenyl}-7,8-dimethoxy-N,4-dimethyl-4,5-dihydro-3H-2,3-benzodiazepine-3-carboxamide] | 480 nM | 80 nM |
| CNC(=O)N1N=C(c2ccc(-c3cccc(C(=O)N4CCCCC4)c3)cc2)c2cc(OC)c(OC)cc2CC1C (racemic) [Example 97, (±)-7,8-dimethoxy-N,4-dimethyl-1-[3′-(piperidin-1-ylcarbonyl)biphenyl-4-yl]-4,5-dihydro-3H-2,3-benzodiazepine-3-carboxamide] | 450 nM | 50 nM |
| CCOc1cc2c(cc1OCC)C(c1ccc(-c3c(C)noc3C)cc1)=NN(C(=O)NC)C(C)C2 (racemic) [Example 161, (±)-1-[4-(3,5-Dimethylisoxazol-4-yl)phenyl]-7,8-diethoxy-N,4-dimethyl-4,5-dihydro-3H-2,3-benzodiazepine-3-carboxamide] | 280 nM | 110 nM |
| CNC(=O)N1N=C(c2ccc(-c3c(C)noc3C)cc2)c2cc(-n3nc(C)cc3C)ccc2CC1C (racemic) [Example 175, (±)-1-[4-(3,5-Dimethylisoxazol-4-yl)phenyl]-8-(3,5-dimethyl-1H-pyrazol-1-yl)-N,4-dimethyl-4,5-dihydro-3H-2,3-benzodiazepine-3-carboxamide] | 440 nM | 190 nM |
| CNC(=O)N1N=C(c2ccc(-c3cccc(C(=O)NC4CC4)c3)cc2)c2cc(OC)c(OC)cc2CC1C (racemic) [Example 99, (±)-1-[3′-(cyclopropylcarbamoyl)-biphenyl-4-yl]-7,8-dimethoxy-N,4-dimethyl-4,5-dihydro-3H-2,3-benzodiazepine-3-carboxamide] | 270 nM | 30 nM |
| CNC(=O)N1N=C(c2ccc(Cl)cc2)c2cc(OCCCN3CCOCC3)ccc2CC1C (racemic) [Example 165, (±)-1-(4-chlorophenyl)-N,4-dimethyl-8-[3-(morpholin-4-yl)propoxy]-4,5-dihydro-3H-2,3-benzodiazepine-3-carboxamide] | 880 nM | 130 nM |
| CNC(=O)N1N=C(c2ccc(F)c(N3CC(F)(F)C3)c2)c2cc(OC)c(OC)cc2CC1C (racemic) [Example 145, (±)-1-[3-(3,3-difluoroazetidin-1-yl)-4-fluorophenyl]-7,8-dimethoxy-N,4-dimethyl-4,5-dihydro-3H-2,3-benzodiazepine-3-carboxamide] | 830 nM | 110 nM |

Results, then the compound that gave them:

| IC50 (MOLM-13 cells) | IC50 (BRD4 (BD1)) | SMILES |
| --- | --- | --- |
| 1270 nM | 260 nM | CC[C@H]1Cc2cc(OC)c(OC)cc2C(c2ccc(N3CCN(S(C)(=O)=O)CC3)cc2)=NN1C(=O)NC [Example 203.1, (4S)-4-ethyl-7,8-dimethoxy-N-methyl-1-{4-[4-(methylsulphonyl)piperazin-1-yl]phenyl}-4,5-dihydro-3H-2,3-benzodiazepine-3-carboxamide] |
| 100 nM | 30 nM | CNC(=O)N1N=C(c2ccc(N3CC(C)(O)C3)cc2)c2cc(OC)c(OC)cc2C[C@@H]1C [Example 185.2, (4S)-1-[4-(3-hydroxy-3-methylazetidin-1-yl)phenyl]-7,8-dimethoxy-N,4-dimethyl-4,5-dihydro-3H-2,3-benzodiazepine-3-carboxamide] |
| 810 nM | 170 nM | CNC(=O)N1N=C(c2ccc(N3CCN(C)CC3=O)cc2)c2cc(OC)c(OC)cc2C[C@@H]1C [Example 43.1, (4S)-7,8-dimethoxy-N,4-dimethyl-1-[4-(4-methyl-2-oxopiperazin-1-yl)phenyl]-4,5-dihydro-3H-2,3-benzodiazepine-3-carboxamide] |
